How the values were obtained:
rice = assay: Test B flood test rice; type: in vivo, Oryza sativa
In short: (§1)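 Read-out is a visual response score from 0 (no effect) to 10 (complete control), assigned by comparison with untreated controls. Treatment was applied at the 2-leaf stage, and plants stayed in the greenhouse for twelve to sixteen days before scoring.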

cocklebur = assay: Test B pre/postemergence cocklebur; type: in vivo, Xanthium strumarium
In short: (§2)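 Test chemicals in a non-phytotoxic solvent mixture with surfactant were sprayed preemergence onto planted seeds and postemergence onto plants 2 to 18 cm tall (1- to 4-leaf stage). After twelve to sixteen days in a greenhouse, injury was visually rated against untreated controls from 0 (no effect) to 10 (complete control).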

corn = assay: Test B pre/postemergence corn; type: in vivo, Zea mays
In short: as §2

morningglory = assay: Test B pre/postemergence morningglory; type: in vivo, Ipomoea hederacea
In short: as §2

crabgrass = assay: Test B pre/postemergence crabgrass; type: in vivo, Digitaria sanguinalis
In short: as §2

smallflower flatsedge = assay: Test B flood test smallflower flatsedge; type: in vivo, Cyperus difformis
In short: as §1

velvetleaf = assay: Test B pre/postemergence velvetleaf; type: in vivo, Abutilon theophrasti
In short: as §2

pigweed = assay: Test B pre/postemergence pigweed; type: in vivo, Amaranthus retroflexus
In short: as §2

surinam grass = assay: Test B pre/postemergence surinam grass; type: in vivo, Brachiaria decumbens
In short: as §2

bamyardgrass = assay: Test B flood test barnyardgrass; type: in vivo, Echinochloa crus-galli
In short: as §1

bedstraw = assay: Test B pre/postemergence bedstraw; type: in vivo, Galium aparine
In short: as §2

rape = assay: Test B pre/postemergence rape; type: in vivo, Brassica napus
In short: as §2

soybean = assay: Test B pre/postemergence soybean; type: in vivo, Glycine max
In short: as §2

duck salad = assay: Test B flood test duck salad; type: in vivo, Heteranthera limosa
In short: as §1

wild oat = assay: Test B pre/postemergence wild oat; type: in vivo, Avena fatua
In short: as §2

sugar beet = assay: Test B pre/postemergence sugar beet; type: in vivo, Beta vulgaris
In short: as §2

[1] = Rate 62 g/ha, headed Pre-emergence (flood test species), scale 0 to 10 (0 no effect, 10 complete control)
[2] = Rate 125 g/ha, Pre-emergence, flood test species, scale 0 to 10 where 0 is no effect and 10 is complete control
[3] = Rate 250 g/ha, Pre-emergence, flood-test species, scale 0 to 10, 0 is no effect, 10 is complete control
[4] = Rate 500 g/ha, Pre-emergence, flood test species, scale 0 to 10 (0 no effect, 10 complete control)
[5] = Preemergence, Rate 62 g/ha, scale of 0 to 10 where 0 is no effect and 10 is complete control
[6] = Preemergence, Rate 250 g/ha, scale of 0 to 10 where 0 is no effect and 10 is complete control
[7] = Preemergence, Rate 500 g/ha, scale of 0 to 10 where 0 is no effect and 10 is complete control
[8] = Rate 62 g/ha, Postemergence, scale of 0 to 10 where 0 is no effect and 10 is complete control
[9] = Rate 125 g/ha, Postemergence, scale 0 to 10
[10] = Rate 125 g/ha, Preemergence, scale of 0 to 10 where 0 is no effect and 10 is complete control
[11] = Rate 500 g/ha, Postemergence, scale 0 to 10

## COC(=O)Cn1c(=O)on(C(=O)N(c2ccc(F)cc2)C(C)C)c1=O [Compound 215]
rice; [1]
  Rice plant response rating: 0
rice; [2]
  Rice plant response rating: 0
rice; [3]
  Rice plant response rating: 0
rice; [4]
  Rice plant response rating: 0
cocklebur; [5]
  Cocklebur plant response rating: 0
cocklebur; [6]
  Cocklebur plant response rating: 0
cocklebur; [7]
  Plant response rating, Cocklebur: 0
cocklebur; [8]
  Cocklebur plant response rating: 0
cocklebur; [9]
  Cocklebur plant response rating: 0
cocklebur; [10]
  Cocklebur plant response rating: 0
cocklebur; Rate 250 g/ha, Postemergence
  Plant response rating (0 to 10; 0 is no effect, 10 is complete control), Cocklebur: 0
cocklebur; [11]
  Cocklebur plant response rating: 0
corn; [5]
  Corn plant response rating: 0
corn; [6]
  Corn plant response rating: 0
corn; [7]
  Plant response rating, Corn: 2
corn; [8]
  Corn plant response rating: 0
corn; [9]
  Corn plant response rating: 0
corn; [10]
  Corn plant response rating: 0
corn; Rate 250 g/ha, Postemergence
  Plant response rating (0 to 10; 0 is no effect, 10 is complete control), Corn: 0
corn; [11]
  Corn plant response rating: 0
morningglory; [5]
  Morningglory plant response rating: 0
morningglory; [6]
  Morningglory plant response rating: 0
morningglory; [7]
  Plant response rating, Morningglory: 0
morningglory; [8]
  Morningglory plant response rating: 0
morningglory; [9]
  Morningglory plant response rating: 2
morningglory; [10]
  Morningglory plant response rating: 0
morningglory; Rate 250 g/ha, Postemergence
  Plant response rating (0 to 10; 0 is no effect, 10 is complete control), Morningglory: 3
morningglory; [11]
  Morningglory plant response rating: 3
crabgrass; [5]
  Crabgrass plant response rating: 3
crabgrass; [6]
  Crabgrass plant response rating: 4
crabgrass; [7]
  Plant response rating, Crabgrass: 4
crabgrass; [8]
  Crabgrass plant response rating: 0
crabgrass; [9]
  Crabgrass plant response rating: 0
crabgrass; [10]
  Crabgrass plant response rating: 4
crabgrass; Rate 250 g/ha, Postemergence
  Plant response rating (0 to 10; 0 is no effect, 10 is complete control), Crabgrass: 2
crabgrass; [11]
  Crabgrass plant response rating: 2
Smallflower flatsedge; [1]
  S. Flatsedge plant response rating: 0
Smallflower flatsedge; [2]
  S. Flatsedge plant response rating: 0
Smallflower flatsedge; [3]
  S. Flatsedge plant response rating: 0
Smallflower flatsedge; [4]
  S. Flatsedge plant response rating: 0
velvetleaf; [5]
  Velvetleaf plant response rating: 0
velvetleaf; [6]
  Velvetleaf plant response rating: 0
velvetleaf; [7]
  Plant response rating, Velvetleaf: 0
velvetleaf; [8]
  Velvetleaf plant response rating: 0
velvetleaf; [9]
  Velvetleaf plant response rating: 0
velvetleaf; [10]
  Velvetleaf plant response rating: 0
velvetleaf; Rate 250 g/ha, Postemergence
  Plant response rating (0 to 10; 0 is no effect, 10 is complete control), Velvetleaf: 0
pigweed; [5]
  Redroot pigweed plant response rating: 4
pigweed; [6]
  Redroot pigweed plant response rating: 5
pigweed; [7]
  Plant response rating, Redroot pigweed: 6
pigweed; [8]
  Redroot pigweed plant response rating: 0
pigweed; [9]
  Redroot pigweed plant response rating: 0
pigweed; [10]
  Redroot pigweed plant response rating: 4
pigweed; Rate 250 g/ha, Postemergence
  Plant response rating (0 to 10; 0 is no effect, 10 is complete control), Redroot pigweed: 6
pigweed; [11]
  Redroot pigweed plant response rating: 6
Surinam grass; [5]
  B. signalgrass plant response rating: 0
Surinam grass; Preemergence, Rate 250 g/ha, scale 0 to 10, 0 is no effect, 10 is complete control
  B. signalgrass plant response rating: 2
Surinam grass; [7]
  Plant response rating, B. signalgrass: 2
Surinam grass; [8]
  B. signalgrass plant response rating: 0
Surinam grass; Rate 125 g/ha, Postemergence, scale 0 (no effect) to 10 (complete control)
  B. signalgrass plant response rating: 0
Surinam grass; [10]
  B. signalgrass plant response rating: 0
Surinam grass; Rate 250 g/ha, Postemergence
  Plant response rating (0 to 10; 0 is no effect, 10 is complete control), B. signalgrass: 3
Surinam grass; Rate 500 g/ha, Postemergence, scale 0 to 10, 0 no effect, 10 complete control
  B. signalgrass plant response rating: 3
bamyardgrass; [1]
  Barnyardgrass plant response rating: 0
bamyardgrass; [2]
  Barnyardgrass plant response rating: 0
bamyardgrass; [3]
  Barnyardgrass plant response rating: 0
bamyardgrass; [4]
  Barnyardgrass plant response rating: 0
bedstraw; [5]
  Bedstraw plant response rating: 0
bedstraw; [6]
  Bedstraw plant response rating: 0
bedstraw; [7]
  Plant response rating, Bedstraw: 0
bedstraw; [8]
  Bedstraw plant response rating: 0
bedstraw; [9]
  Bedstraw plant response rating: 0
bedstraw; [10]
  Bedstraw plant response rating: 0
bedstraw; Rate 250 g/ha, Postemergence
  Plant response rating (0 to 10; 0 is no effect, 10 is complete control), Bedstraw: 6
bedstraw; [11]
  Bedstraw plant response rating: 8
rape; [5]
  Rape plant response rating: 0
rape; [6]
  Rape plant response rating: 0
rape; [7]
  Plant response rating, Rape: 2
rape; [8]
  Rape plant response rating: 0
rape; [9]
  Rape plant response rating: 0
rape; [10]
  Rape plant response rating: 0
rape; Rate 250 g/ha, Postemergence
  Plant response rating (0 to 10; 0 is no effect, 10 is complete control), Rape: 0
rape; [11]
  Rape plant response rating: 0
soybean; [5]
  Soybean plant response rating: 0
soybean; [6]
  Soybean plant response rating: 0
soybean; [7]
  Plant response rating, Soybean: 0
soybean; [8]
  Soybean plant response rating: 0
soybean; [9]
  Soybean plant response rating: 1
soybean; [10]
  Soybean plant response rating: 0
soybean; Rate 250 g/ha, Postemergence
  Plant response rating (0 to 10; 0 is no effect, 10 is complete control), Soybean: 1
soybean; [11]
  Soybean plant response rating: 1
Duck salad; [1]
  Ducksalad plant response rating: 0
Duck salad; [2]
  Ducksalad plant response rating: 0
Duck salad; [3]
  Ducksalad plant response rating: 0
Duck salad; [4]
  Ducksalad plant response rating: 0
Wild oat; [5]
  Wild oats plant response rating: 0
Wild oat; [6]
  Wild oats plant response rating: 2
Wild oat; [7]
  Plant response rating, Wild oats: 2
Wild oat; [8]
  Wild oats plant response rating: 0
Wild oat; [9]
  Wild oats plant response rating: 0
Wild oat; [10]
  Wild oats plant response rating: 0
Wild oat; Rate 250 g/ha, Postemergence
  Plant response rating (0 to 10; 0 is no effect, 10 is complete control), Wild oats: 2
Sugar beet; [5]
  Sugarbeets plant response rating: 0
Sugar beet; [6]
  Sugarbeets plant response rating: 2
Sugar beet; [7]
  Plant response rating, Sugarbeets: 7
Sugar beet; [8]
  Sugarbeets plant response rating: 0
Sugar beet; [9]
  Sugarbeets plant response rating: 0
Sugar beet; [10]
  Sugarbeets plant response rating: 2
Sugar beet; Rate 250 g/ha, Postemergence
  Plant response rating (0 to 10; 0 is no effect, 10 is complete control), Sugarbeets: 0
Sugar beet; [11]
  Sugarbeets plant response rating: 0
